Reference: US10465167B2, “Adjuvant for rapid proliferation of human mesenchymal stem cells in vitro, method for rapid proliferation of human mesenchymal stem cells in vitro, method for growth factor harvested from rapid proliferation of human mesenchymal stem cells in vitro and use thereof” (BUDDHIST TZU CHI MEDICAL FOUNDATION, priority 2013, dated 2019)

Legend:
[1] = system: adipose tissue-derived stem cells; experiment: Cell growth density analysis, normal vs high oxygen environment; type: cell-based, human; settings: high oxygen environment (37.5%), seventh day; FIG. 4A
Source text: In this experiment, the culture conditions are divided into four groups, respectively: a culture group with a basic medium and FGF-2 in a normal oxygen environment, a culture group with a basic medium and FGF-2 in a high oxygen environment, a culture group with a basic medium and the adjuvant of the present invention in a normal oxygen environment, and a culture group with a basic medium and the adjuvant of the present invention in a high oxygen environment, wherein the high oxygen environment refers to a partial pressure of oxygen approximately equal to 37.5%, and parameters of the culture conditions (such as a basic medium, an incubator and a cell culture density) are the same as described in Section 1 of the aforementioned Experiment 1.
The cells are cleaned once by a phosphate buffer solution (PBS), and then reacted with a Trypsin-EDTA solution at 37 degrees Celsius for 5 minutes, and then the cell spatula is used to remove incompletely reacted cells carefully, and the same proportion of a medium containing a fetal bovine serum is used for neutralizing the enzyme activity of trypsin. The number of cells is measured by a cell counter (Vi-CELL AS, Beckman Coulter). […] Each set of experiment data is measured for three times, and the result is expressed in term of mean± standard deviation.

[2] = system: adipose tissue-derived stem cells; experiment: Western Blot of p21 and CDK2 proteins, normal vs high oxygen; type: cell-based, human; settings: high oxygen environment (37.5%); FIG. 4B
Source text: The culture conditions of the adipose tissue-derived stem cell are divided into four groups as described in the aforementioned section 5. The Western Blot Analysis is used for the analysis to observe the effect of the controlling and adjusting the cell cycle related proteins of the adipose tissue-derived stem cells cultured in different culture conditions on the protein expression of the cell cycle related proteins (such as p21 and CDK2). Similarly, the expression of the β-actin protein is used as a control for the standardization of quantifying each aforementioned protein expression into data.

FGF-2: basic fibroblast growth factor, concentration of 10 ng/mL (R&D Systems), comparison culture additive
total number of cells [1]: below 2.5×10^6 | expression of the p21 protein [2]: significant increase of the expression of the p21 protein
